How the values were obtained:
Experiment in all cases: relative viability (nuclei count vs DMSO), 5 days (fraction); higher = more cells survive
[1] = compound: C/C(=N\NC(=S)N1CCC1)/C2=CC=CC=N2 + Cc1cc(Nc2cc(N3CCN(C)CC3)nc(Sc3ccc(NC(=O)C4CC4)cc3)n2)n[nH]1 [Tozasertib] (partner 0.1 µM)
Summary of the method: (§1)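 Relative viability equals treated-well nuclei counts divided by vehicle-well nuclei counts. Counts came from 4× images of lung cancer cell lines grown in 1536-well plates for 5 days after pin-tool dosing on the day after seeding. Dosing used one drug alone or a fixed anchor-drug dose plus five library-drug doses (not always all listed) in √10 steps, and values are medians of duplicate plates.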

[2] = compound: C/C(=N\NC(=S)N1CCC1)/C2=CC=CC=N2 + COc1cc2c(Oc3ccc(NC(=O)C4(C(=O)Nc5ccc(F)cc5)CC4)cc3F)ccnc2cc1OCCCN1CCOCC1 [Foretinib] (partner 0.25 µM)
Summary of the method: as §1

[3] = compound: C/C(=N\NC(=S)N1CCC1)/C2=CC=CC=N2 + NC(=O)Nc1cc(-c2cccc(F)c2)sc1C(=O)N[C@H]1CCCNC1 [AZD7762] (partner 0.2 µM)
Summary of the method: as §1

[4] = compound: C/C(=N\NC(=S)N1CCC1)/C2=CC=CC=N2 + CCNC(=O)c1noc(-c2cc(C(C)C)c(O)cc2O)c1-c1ccc(CN2CCOCC2)cc1 [Luminespib] (partner 0.01 µM)
Summary of the method: as §1

Cell Line	relative viability ([1]; first compound 0.05 µM)	relative viability ([1]; first compound 0.1581 µM)	relative viability ([1]; first compound 0.5 µM)	relative viability ([1]; first compound 1.581 µM)	relative viability ([1]; first compound 5 µM)	relative viability ([2]; first compound 0.05 µM)	relative viability ([2]; first compound 0.1581 µM)	relative viability ([2]; first compound 0.5 µM)	relative viability ([2]; first compound 1.581 µM)	relative viability ([2]; first compound 5 µM)	relative viability ([3]; first compound 0.05 µM)	relative viability ([3]; first compound 0.1581 µM)	relative viability ([3]; first compound 0.5 µM)	relative viability ([3]; first compound 1.581 µM)	relative viability ([3]; first compound 5 µM)	relative viability ([4]; first compound 0.05 µM)	relative viability ([4]; first compound 0.1581 µM)	relative viability ([4]; first compound 0.5 µM)	relative viability ([4]; first compound 1.581 µM)	relative viability ([4]; first compound 5 µM)
NCI-H1793	0.164	0.209	0.152	0.136	0.126	0.229	0.382	0.157	0.143	0.188	0.129	0.199	0.104	0.116	0.142	0.214	0.142	0.103	0.119	0.141
NCI-H1915	0.178	0.137	0.129	0.131	0.139	0.366	0.675	0.216	0.192	0.173	0.16	0.114	0.134	0.119	0.122	0.126	0.108	0.111	0.121	0.107
NCI-H1944	0.248	0.181	0.127	0.0988	0.107	0.624	0.38	0.181	0.143	0.166	0.227	0.169	0.145	0.102	0.129	0.527	0.265	0.143	0.124	0.113
NCI-H1975	0.105	0.0772	0.0873	0.101	0.0836	0.137	0.143	0.129	0.124	0.124	0.308	0.239	0.225	0.234	0.24	0.118	0.148	0.206	0.107	0.151
NCI-H1993	0.479	0.466	0.449	0.513	0.51	0.542	0.516	0.567	0.631	0.526	0.302	0.372	0.387	0.373	0.317	0.455	0.496	0.517	0.428	0.509
NCI-H2085	0.372	0.366	0.388	0.315	0.315	0.322	0.373	0.296	0.269	0.253	0.263	0.278	0.293	0.223	0.271	0.236	0.274	0.281	0.234	0.211
NCI-H2087	0.0992	0.0962	0.114	0.0938	0.0874	0.185	0.178	0.193	0.15	0.121	0.193	0.16	0.249	0.118	0.15	0.116	0.0944	0.159	0.142	0.137
NCI-H2126	0.174	0.167	0.193	0.162	0.19	0.223	0.167	0.167	0.213	0.201	0.2	0.19	0.214	0.189	0.157	0.201	0.201	0.198	0.178	0.225

— the supplement of paper PMC10307832
